Source: ChEMBL document CHEMBL4507296 (2021)

What was measured:
[1] = molecular target: Ephrin type-B receptor 6 (Homo sapiens) (UniProt O15197); conditions: Compound concentration 1000.0 nM
[2] = molecular target: Calcium/calmodulin-dependent protein kinase type II subunit beta (Homo sapiens) (UniProt Q13554); conditions: Compound concentration 1000.0 nM
[3] = molecular target: D(1A) dopamine receptor (Homo sapiens) (UniProt P21728); conditions: Compound concentration 10.0 uM
[4] = molecular target: Serine/threonine-protein kinase MARK1 (Homo sapiens) (UniProt Q9P0L2); conditions: Compound concentration 1000.0 nM
[5] = molecular target: Serine/threonine-protein kinase/endoribonuclease IRE1 (Homo sapiens) (UniProt O75460); conditions: Compound concentration 1000.0 nM
[6] = molecular target: Sigma intracellular receptor 2 (Homo sapiens) (UniProt Q5BJF2); conditions: Compound concentration 10.0 uM
[7] = molecular target: Cyclin-G-associated kinase (Homo sapiens) (UniProt O14976); conditions: Compound concentration 1000.0 nM
[8] = molecular target: Serine/threonine-protein kinase ULK2 (Homo sapiens) (UniProt Q8IYT8); conditions: Compound concentration 1000.0 nM
[9] = molecular target: Protein kinase C eta type (Homo sapiens) (UniProt P24723); conditions: Compound concentration 1000.0 nM
[10] = molecular target: Serine/threonine-protein kinase Sgk3 (Homo sapiens) (UniProt Q96BR1); conditions: Compound concentration 1000.0 nM
[11] = molecular target: Prostaglandin G/H synthase 2 (Homo sapiens) (UniProt P35354); experiment: Cyclooxygenase 2 (human) CEREP ligand profiling; conditions: Compound concentration 10.0 uM
[12] = molecular target: D(3) dopamine receptor (Homo sapiens) (UniProt P35462); conditions: Compound concentration 10.0 uM
[13] = molecular target: Beta-adrenergic receptor kinase 1 (Homo sapiens) (UniProt P25098); conditions: Compound concentration 1000.0 nM
[14] = molecular target: Proto-oncogene tyrosine-protein kinase Src (Homo sapiens) (UniProt P12931); conditions: Compound concentration 1000.0 nM
[15] = molecular target: Mitogen-activated protein kinase 15 (Homo sapiens) (UniProt Q8TD08); conditions: Compound concentration 1000.0 nM
[16] = molecular target: Serine/threonine-protein kinase 24 (Homo sapiens) (UniProt Q9Y6E0); conditions: Compound concentration 1000.0 nM
[17] = molecular target: LIM domain kinase 1 (Homo sapiens) (UniProt P53667); conditions: Compound concentration 1000.0 nM
[18] = molecular target: Serine/threonine-protein kinase 38 (Homo sapiens) (UniProt Q15208); conditions: Compound concentration 1000.0 nM
[19] = molecular target: Vascular endothelial growth factor receptor 1 (Homo sapiens) (UniProt P17948); conditions: Compound concentration 1000.0 nM
[20] = molecular target: GABA-A receptor; anion channel (Rattus norvegicus) (UniProt O09028+P15431+P18506+P18508+P19969+P20236+P23574+P23576+P28471+P28473+P30191+P62813+P63079+P63138+Q91ZM7+Q9ES14); conditions: Compound concentration 10.0 uM
[21] = molecular target: Leucine-rich repeat serine/threonine-protein kinase 2 (Homo sapiens) (UniProt Q5S007); conditions: Compound concentration 1000.0 nM
[22] = molecular target: Mitogen-activated protein kinase 10 (Homo sapiens) (UniProt P53779); conditions: Compound concentration 1000.0 nM
[23] = molecular target: Mitogen-activated protein kinase kinase kinase 11 (Homo sapiens) (UniProt Q16584); conditions: Compound concentration 1000.0 nM
[24] = molecular target: Mitogen-activated protein kinase 1 (Homo sapiens) (UniProt P28482); conditions: Compound concentration 1000.0 nM
[25] = molecular target: Serine/threonine-protein kinase tousled-like 2 (Homo sapiens) (UniProt Q86UE8); conditions: Compound concentration 1000.0 nM
[26] = molecular target: Mitogen-activated protein kinase kinase kinase 1 (Homo sapiens) (UniProt Q13233); conditions: Compound concentration 1000.0 nM
[27] = molecular target: Mitogen-activated protein kinase kinase kinase kinase 5 (Homo sapiens) (UniProt Q9Y4K4); conditions: Compound concentration 1000.0 nM
[28] = molecular target: Myosin light chain kinase 2, skeletal/cardiac muscle (Homo sapiens) (UniProt Q9H1R3); conditions: Compound concentration 1000.0 nM
[29] = molecular target: Cyclin-dependent kinase 3 (Homo sapiens) (UniProt Q00526); conditions: Compound concentration 1000.0 nM
[30] = molecular target: Dual specificity protein kinase CLK4 (Homo sapiens) (UniProt Q9HAZ1); conditions: Compound concentration 1000.0 nM
[31] = molecular target: Activin receptor type-2B (Homo sapiens) (UniProt Q13705); conditions: Compound concentration 1000.0 nM
[32] = molecular target: Mitogen-activated protein kinase 9 (Homo sapiens) (UniProt P45984); conditions: Compound concentration 1000.0 nM
[33] = molecular target: Casein kinase I isoform gamma-3 (Homo sapiens) (UniProt Q9Y6M4); conditions: Compound concentration 1000.0 nM
[34] = molecular target: Ribosomal protein S6 kinase alpha-5 (Homo sapiens) (UniProt O75582); conditions: Compound concentration 1000.0 nM
[35] = molecular target: Tyrosine-protein kinase Fer (Homo sapiens) (UniProt P16591); conditions: Compound concentration 1000.0 nM
[36] = molecular target: TGF-beta receptor type-1 (Homo sapiens) (UniProt P36897); conditions: Compound concentration 1000.0 nM
[37] = molecular target: Alpha-2C adrenergic receptor (Homo sapiens) (UniProt P18825); conditions: Compound concentration 10.0 uM
[38] = molecular target: Mitogen-activated protein kinase kinase kinase 15 (Homo sapiens) (UniProt Q6ZN16); conditions: Compound concentration 1000.0 nM
[39] = molecular target: G protein-coupled receptor kinase 4 (Homo sapiens) (UniProt P32298); conditions: Compound concentration 1000.0 nM
[40] = molecular target: Mitogen-activated protein kinase kinase kinase 9 (Homo sapiens) (UniProt P80192); conditions: Compound concentration 1000.0 nM
[41] = tested on: Phosphatidylinositol 4,5-bisphosphate 3-kinase catalytic subunit alpha isoform (Homo sapiens), P42336 [C420R]; conditions: Compound concentration 1000.0 nM
[42] = molecular target: Activin receptor type-2A (Homo sapiens) (UniProt P27037); conditions: Compound concentration 1000.0 nM
[43] = molecular target: Rhodopsin kinase GRK1 (Homo sapiens) (UniProt Q15835); conditions: Compound concentration 1000.0 nM
[44] = molecular target: Serine/threonine-protein kinase Nek3 (Homo sapiens) (UniProt P51956); conditions: Compound concentration 1000.0 nM

Mitogen-activated protein kinase kinase kinase 11 (Homo sapiens), sequence (Q16584 whole entry, looked up): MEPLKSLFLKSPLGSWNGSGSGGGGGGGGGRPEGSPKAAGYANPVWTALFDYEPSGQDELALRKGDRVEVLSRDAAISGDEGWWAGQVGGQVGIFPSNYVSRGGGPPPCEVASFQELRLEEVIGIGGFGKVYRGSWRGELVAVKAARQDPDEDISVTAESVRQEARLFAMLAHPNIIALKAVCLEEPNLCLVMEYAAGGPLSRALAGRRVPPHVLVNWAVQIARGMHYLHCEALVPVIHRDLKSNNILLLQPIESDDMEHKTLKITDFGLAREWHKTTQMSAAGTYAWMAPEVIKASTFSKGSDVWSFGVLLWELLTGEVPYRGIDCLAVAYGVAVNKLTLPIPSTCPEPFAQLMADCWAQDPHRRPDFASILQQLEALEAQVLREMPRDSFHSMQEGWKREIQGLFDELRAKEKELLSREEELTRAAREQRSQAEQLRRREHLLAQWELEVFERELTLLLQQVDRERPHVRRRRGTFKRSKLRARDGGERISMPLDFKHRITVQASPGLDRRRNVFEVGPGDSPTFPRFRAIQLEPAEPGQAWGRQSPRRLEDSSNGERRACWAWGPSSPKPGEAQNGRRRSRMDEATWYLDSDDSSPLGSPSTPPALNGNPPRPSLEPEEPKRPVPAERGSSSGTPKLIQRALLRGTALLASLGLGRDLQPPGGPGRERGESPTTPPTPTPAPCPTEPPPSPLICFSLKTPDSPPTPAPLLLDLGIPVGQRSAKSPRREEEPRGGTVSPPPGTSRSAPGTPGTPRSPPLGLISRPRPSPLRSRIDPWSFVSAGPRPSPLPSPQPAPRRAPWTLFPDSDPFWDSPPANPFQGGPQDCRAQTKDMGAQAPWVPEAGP
Dual specificity protein kinase CLK4 (Homo sapiens), sequence (Q9HAZ1 whole entry, looked up): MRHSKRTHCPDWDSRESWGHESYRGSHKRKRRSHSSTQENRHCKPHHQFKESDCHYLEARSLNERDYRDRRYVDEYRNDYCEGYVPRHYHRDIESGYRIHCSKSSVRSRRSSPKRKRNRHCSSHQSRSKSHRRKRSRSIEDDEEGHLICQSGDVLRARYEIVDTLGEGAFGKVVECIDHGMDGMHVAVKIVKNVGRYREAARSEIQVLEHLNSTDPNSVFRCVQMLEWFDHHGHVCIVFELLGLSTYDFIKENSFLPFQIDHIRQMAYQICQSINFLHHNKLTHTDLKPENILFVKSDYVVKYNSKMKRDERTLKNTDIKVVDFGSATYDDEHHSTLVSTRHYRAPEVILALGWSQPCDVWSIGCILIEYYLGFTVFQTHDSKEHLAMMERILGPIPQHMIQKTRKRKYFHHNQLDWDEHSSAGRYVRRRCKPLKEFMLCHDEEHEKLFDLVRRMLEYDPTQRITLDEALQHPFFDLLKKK
Mitogen-activated protein kinase 9 (Homo sapiens), sequence (P45984 whole entry, looked up, canonical isoform): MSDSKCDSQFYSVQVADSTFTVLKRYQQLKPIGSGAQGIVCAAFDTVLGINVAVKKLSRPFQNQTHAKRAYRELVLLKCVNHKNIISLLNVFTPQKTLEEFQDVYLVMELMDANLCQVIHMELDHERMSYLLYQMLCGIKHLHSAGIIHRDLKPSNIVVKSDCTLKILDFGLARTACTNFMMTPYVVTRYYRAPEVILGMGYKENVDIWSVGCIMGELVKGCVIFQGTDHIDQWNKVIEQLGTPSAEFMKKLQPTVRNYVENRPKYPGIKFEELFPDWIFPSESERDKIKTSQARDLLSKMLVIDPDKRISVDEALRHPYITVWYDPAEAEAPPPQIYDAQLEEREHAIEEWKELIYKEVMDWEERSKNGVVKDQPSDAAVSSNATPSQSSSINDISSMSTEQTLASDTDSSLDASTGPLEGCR
Mitogen-activated protein kinase 10 (Homo sapiens), sequence (P53779 whole entry): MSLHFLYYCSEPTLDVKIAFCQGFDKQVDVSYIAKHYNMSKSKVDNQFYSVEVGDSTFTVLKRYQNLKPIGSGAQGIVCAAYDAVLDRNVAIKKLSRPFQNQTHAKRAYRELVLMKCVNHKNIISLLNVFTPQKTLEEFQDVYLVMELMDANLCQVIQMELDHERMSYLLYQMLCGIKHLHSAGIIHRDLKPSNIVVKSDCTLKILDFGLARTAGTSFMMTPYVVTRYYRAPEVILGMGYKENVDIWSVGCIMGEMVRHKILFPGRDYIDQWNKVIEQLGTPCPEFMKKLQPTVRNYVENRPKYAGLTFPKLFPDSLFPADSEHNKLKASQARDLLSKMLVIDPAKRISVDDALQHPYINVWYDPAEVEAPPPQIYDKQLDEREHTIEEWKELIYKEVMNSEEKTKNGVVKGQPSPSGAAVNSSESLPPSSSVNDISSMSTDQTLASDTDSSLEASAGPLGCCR
D(1A) dopamine receptor (Homo sapiens), sequence (P21728 whole entry): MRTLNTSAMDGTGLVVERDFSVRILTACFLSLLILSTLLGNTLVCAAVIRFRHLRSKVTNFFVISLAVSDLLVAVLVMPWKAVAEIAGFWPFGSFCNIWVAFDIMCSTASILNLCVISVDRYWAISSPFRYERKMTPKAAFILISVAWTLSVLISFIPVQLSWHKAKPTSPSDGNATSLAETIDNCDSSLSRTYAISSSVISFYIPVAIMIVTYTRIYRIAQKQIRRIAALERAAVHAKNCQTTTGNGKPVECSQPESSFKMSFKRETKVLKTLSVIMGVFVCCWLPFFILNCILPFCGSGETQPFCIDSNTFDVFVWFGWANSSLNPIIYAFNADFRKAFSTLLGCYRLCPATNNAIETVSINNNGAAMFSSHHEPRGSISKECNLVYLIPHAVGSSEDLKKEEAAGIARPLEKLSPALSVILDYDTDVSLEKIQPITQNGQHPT
Serine/threonine-protein kinase Sgk3 (Homo sapiens), sequence (Q96BR1 whole entry): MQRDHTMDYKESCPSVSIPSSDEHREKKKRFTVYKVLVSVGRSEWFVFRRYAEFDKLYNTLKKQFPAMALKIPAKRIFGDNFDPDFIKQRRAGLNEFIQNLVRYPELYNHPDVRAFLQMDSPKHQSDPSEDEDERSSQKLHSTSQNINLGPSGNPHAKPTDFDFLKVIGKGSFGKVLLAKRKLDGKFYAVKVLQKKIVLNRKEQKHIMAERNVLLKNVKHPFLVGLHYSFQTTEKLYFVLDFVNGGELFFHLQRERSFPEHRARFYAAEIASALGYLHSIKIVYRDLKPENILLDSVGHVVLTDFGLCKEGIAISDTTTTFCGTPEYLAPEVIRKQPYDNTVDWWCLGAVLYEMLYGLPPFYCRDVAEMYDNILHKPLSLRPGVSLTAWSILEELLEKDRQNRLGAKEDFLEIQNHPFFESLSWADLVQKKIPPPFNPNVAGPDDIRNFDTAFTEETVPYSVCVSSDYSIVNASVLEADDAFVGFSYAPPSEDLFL
Cyclin-dependent kinase 3 (Homo sapiens), sequence (Q00526 whole entry, looked up): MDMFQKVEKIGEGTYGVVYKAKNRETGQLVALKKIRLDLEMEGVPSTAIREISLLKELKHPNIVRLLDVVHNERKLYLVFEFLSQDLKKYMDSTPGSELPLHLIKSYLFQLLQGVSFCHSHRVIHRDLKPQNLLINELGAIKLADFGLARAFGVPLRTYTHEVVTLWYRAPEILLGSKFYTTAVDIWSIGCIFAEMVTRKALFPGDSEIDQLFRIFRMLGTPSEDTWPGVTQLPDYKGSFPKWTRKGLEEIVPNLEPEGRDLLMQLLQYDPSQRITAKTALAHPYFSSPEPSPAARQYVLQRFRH
Tyrosine-protein kinase Fer (Homo sapiens), sequence (P16591 whole entry, looked up): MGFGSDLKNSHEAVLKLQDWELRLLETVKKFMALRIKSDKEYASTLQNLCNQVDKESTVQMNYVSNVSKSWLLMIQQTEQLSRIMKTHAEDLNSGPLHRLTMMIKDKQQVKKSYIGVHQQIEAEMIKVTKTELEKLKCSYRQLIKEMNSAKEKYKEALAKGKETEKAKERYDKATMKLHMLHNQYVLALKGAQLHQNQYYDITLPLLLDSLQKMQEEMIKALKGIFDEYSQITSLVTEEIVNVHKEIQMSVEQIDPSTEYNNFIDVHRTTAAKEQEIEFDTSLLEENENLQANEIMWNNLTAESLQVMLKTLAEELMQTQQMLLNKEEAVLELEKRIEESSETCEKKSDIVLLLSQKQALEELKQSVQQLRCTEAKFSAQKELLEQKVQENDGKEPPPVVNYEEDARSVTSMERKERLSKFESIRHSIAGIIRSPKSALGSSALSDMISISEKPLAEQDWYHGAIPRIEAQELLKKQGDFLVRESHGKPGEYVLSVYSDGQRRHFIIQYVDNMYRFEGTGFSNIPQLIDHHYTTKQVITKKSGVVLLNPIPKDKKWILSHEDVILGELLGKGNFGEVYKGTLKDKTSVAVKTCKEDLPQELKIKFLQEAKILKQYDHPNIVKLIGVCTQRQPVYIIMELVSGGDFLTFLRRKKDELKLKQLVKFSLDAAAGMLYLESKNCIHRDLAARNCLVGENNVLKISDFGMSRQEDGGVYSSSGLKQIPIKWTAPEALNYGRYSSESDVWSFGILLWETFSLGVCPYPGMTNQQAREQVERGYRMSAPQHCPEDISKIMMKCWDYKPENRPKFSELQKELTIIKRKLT
Activin receptor type-2B (Homo sapiens), sequence (Q13705 whole entry): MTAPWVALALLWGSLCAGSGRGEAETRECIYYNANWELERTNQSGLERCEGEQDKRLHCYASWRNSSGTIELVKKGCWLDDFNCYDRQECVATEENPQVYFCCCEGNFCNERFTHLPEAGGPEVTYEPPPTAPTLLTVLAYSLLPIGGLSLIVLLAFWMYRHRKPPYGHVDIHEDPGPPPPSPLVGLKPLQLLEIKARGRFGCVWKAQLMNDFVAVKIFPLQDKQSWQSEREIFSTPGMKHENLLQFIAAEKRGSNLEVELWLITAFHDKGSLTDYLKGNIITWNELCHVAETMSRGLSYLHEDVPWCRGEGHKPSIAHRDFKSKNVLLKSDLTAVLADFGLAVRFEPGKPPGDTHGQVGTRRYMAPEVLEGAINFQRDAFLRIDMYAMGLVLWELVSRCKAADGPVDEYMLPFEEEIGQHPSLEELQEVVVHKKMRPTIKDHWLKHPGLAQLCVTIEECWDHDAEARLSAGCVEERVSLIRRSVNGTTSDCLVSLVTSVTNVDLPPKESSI
Sigma intracellular receptor 2 (Homo sapiens), sequence (Q5BJF2 whole entry): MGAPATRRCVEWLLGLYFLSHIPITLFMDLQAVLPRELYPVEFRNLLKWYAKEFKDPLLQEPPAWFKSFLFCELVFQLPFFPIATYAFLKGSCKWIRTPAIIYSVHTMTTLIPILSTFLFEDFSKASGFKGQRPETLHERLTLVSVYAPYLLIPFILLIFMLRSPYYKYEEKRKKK

C[C@H](c1ccc(F)cc1)N(Cc1cccc(C(=O)O)c1)C(=O)c1cnc2ccccc2c1 [PF-05105679]
inactive: residual activity [1] 88% | residual activity [2] 100% | inhibition [3] -0.79% | residual activity [4] 100% | residual activity [5] 78% | inhibition [6] 3.36% | residual activity [7] 98% | residual activity [8] 81% | residual activity [9] 75% | residual activity [10] 100% | inhibition [11] 21% | inhibition [12] -8.16% | residual activity [13] 80% | residual activity [14] 100% | residual activity [15] 93% | residual activity [16] 100% | residual activity [17] 100% | residual activity [18] 100% | residual activity [19] 100% | inhibition [20] 20.8% | residual activity [21] 100% | residual activity [22] 82% | residual activity [23] 100% | residual activity [24] 99% | residual activity [25] 97% | residual activity [26] 100% | residual activity [27] 100% | residual activity [28] 100% | residual activity [29] 98% | residual activity [30] 66% | residual activity [31] 100% | residual activity [32] 81% | residual activity [33] 100% | residual activity [34] 98% | residual activity [35] 100% | residual activity [36] 96% | inhibition [37] 3.68% | residual activity [38] 100% | residual activity [39] 100% | residual activity [40] 100% | residual activity [41] 100% | residual activity [42] 100% | residual activity [43] 100% | residual activity [44] 87%
